Patent publication US10081617B2, “Factor XIa inhibitors” (MERCK SHARP & DOHME CORP., priority 2015, dated 2018)

Molecular target: purified human Factor XIa (Homo sapiens (Human), UniProt P03951)
Assay: Factor XIa Assay
Type: biochemical
Settings: substrate Z-Gly-Pro-Arg-AFC; value printed in the compound table of Example 12; read-out: FXIa Ki
Method: The effectiveness of a compound of the present invention as an inhibitor of Coagulation Factor XIa can be determined using a relevant purified serine protease, and an appropriate synthetic substrate. The rate of hydrolysis of the chromogenic or fluorogenic substrate by the relevant serine protease was measured both in the absence and presence of compounds of the present invention. Assays were conducted at room temperature or at 37° C. […] A decrease in the rate of fluorescence change in the presence of inhibitor is indicative of enzyme inhibition. Such methods are known to one skilled in the art. The results of this assay are expressed as the inhibitory constant, Ki.
Factor XIa determinations were made in 50 mM HEPES buffer at pH 7.4 containing 150 mM NaCl, 5 mM CaCl2, and 0.1% PEG 8000 (polyethylene glycol; JT Baker or Fisher Scientific).
Times required to achieve equilibration between enzyme and inhibitor were determined in control experiments. Initial velocities of product formation in the absence (Vo) or presence of inhibitor (Vi) were measured. […]

Sequence of purified human Factor XIa (P03951 388-625): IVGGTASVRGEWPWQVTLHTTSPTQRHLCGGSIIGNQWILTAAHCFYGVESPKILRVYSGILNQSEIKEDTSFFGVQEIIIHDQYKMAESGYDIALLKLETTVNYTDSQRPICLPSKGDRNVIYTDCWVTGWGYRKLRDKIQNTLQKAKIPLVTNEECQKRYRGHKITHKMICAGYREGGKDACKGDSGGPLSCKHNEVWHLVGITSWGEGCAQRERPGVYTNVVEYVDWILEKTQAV
Sequence of purified human Factor XIa (P03951 19-387 partner): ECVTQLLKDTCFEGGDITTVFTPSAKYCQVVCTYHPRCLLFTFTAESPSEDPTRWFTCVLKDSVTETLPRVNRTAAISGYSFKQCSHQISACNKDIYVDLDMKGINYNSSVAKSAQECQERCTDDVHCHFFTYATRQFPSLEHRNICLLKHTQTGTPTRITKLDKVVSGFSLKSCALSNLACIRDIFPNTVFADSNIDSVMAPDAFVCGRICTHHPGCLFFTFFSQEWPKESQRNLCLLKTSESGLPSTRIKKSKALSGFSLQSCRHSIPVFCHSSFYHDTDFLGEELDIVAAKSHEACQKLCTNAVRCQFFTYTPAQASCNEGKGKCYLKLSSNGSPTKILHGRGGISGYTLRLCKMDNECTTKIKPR

Ki: 3.08 nM
Compound: O=C(O)c1ccc(-c2cnc(C3CCc4cc(-c5cc(Cl)ccc5-n5cnnn5)c[n+]([O-])c43)[nH]2)s1 (stereo not shown) [Example 12, 5-(2-{3-[5-chloro-2-(1H-tetrazol-1-yl)phenyl]-1-oxido-6,7-dihydro-5H-cyclopenta[b]pyridin-7-yl}-1H-imidazol-5-yl)thiophene-2-carboxylic acid]
